Laboratory results from PubChem BioAssay AID1963852 (Molecular Pharmacology Branch, DTP, NCI, 2024).

Test system: 282377-053-R-J1-PDC complex spheroid viability
Assay: Anticancer human tumor 282377-053-R-J1-PDC patient-derived colon adenocarcinoma cell line growth inhibition [POLQ]
Details: for IC50: curve of first compound; for viability, T/C: stronger effect = lower value
How it was run: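 Growth inhibition in 3D: complex spheroids (tumor PDC, HUVEC, MSC) treated with POLQ inhibitor combinations; where Cmax unknown, highest tested concentration 10 microM, except SN-38 at 1 microM.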

[1] = second compound 0.0316 µM, first compound 0.0316 µM
[2] = second compound 0.0316 µM, first compound 0.1 µM
[3] = second compound 0.0316 µM, first compound 0.316 µM
[4] = second compound 0.0316 µM, first compound 1 µM
[5] = second compound 0.1 µM, first compound 0.0316 µM
[6] = second compound 0.1 µM, first compound 0.1 µM
[7] = second compound 0.1 µM, first compound 0.316 µM
[8] = second compound 0.1 µM, first compound 1 µM
[9] = second compound 0.316 µM, first compound 0.0316 µM
[10] = second compound 0.316 µM, first compound 0.1 µM
[11] = second compound 0.316 µM, first compound 0.316 µM
[12] = second compound 0.316 µM, first compound 1 µM
[13] = second compound 1 µM, first compound 0.0316 µM
[14] = second compound 1 µM, first compound 0.1 µM
[15] = second compound 1 µM, first compound 0.316 µM
[16] = second compound 1 µM, first compound 1 µM
[17] = second compound 3.16 µM, first compound 0.0316 µM
[18] = second compound 3.16 µM, first compound 0.1 µM
[19] = second compound 3.16 µM, first compound 0.316 µM
[20] = second compound 3.16 µM, first compound 1 µM
[21] = second compound 10 µM, first compound 0.0316 µM
[22] = second compound 10 µM, first compound 0.1 µM
[23] = second compound 10 µM, first compound 0.316 µM
[24] = second compound 10 µM, first compound 1 µM
[25] = second compound 0.0316 µM, first compound 0.00316 µM
[26] = second compound 0.0316 µM, first compound 0.01 µM
[27] = second compound 0.1 µM, first compound 0.00316 µM
[28] = second compound 0.1 µM, first compound 0.01 µM
[29] = second compound 0.316 µM, first compound 0.00316 µM
[30] = second compound 0.316 µM, first compound 0.01 µM
[31] = second compound 1 µM, first compound 0.00316 µM
[32] = second compound 1 µM, first compound 0.01 µM
[33] = second compound 3.16 µM, first compound 0.00316 µM
[34] = second compound 3.16 µM, first compound 0.01 µM
[35] = second compound 10 µM, first compound 0.00316 µM
[36] = second compound 10 µM, first compound 0.01 µM
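Further: spheroids exposed to compounds for seven days.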
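Wherever viability, T/C is given: 100% = DMSO vehicle control viability.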

`COc1cc2cc(C(=O)CCC(=O)O)sc2cc1OC` + Nc1ccc(C#CCN(C(=O)Cc2ncc(C(F)(F)F)cc2C(F)(F)F)c2ccc(F)cc2)nn1 was tested, and the IC50 (second compound 0.0316 µM) was over 10000 nM, the IC50 (second compound 0.1 µM) was over 10000 nM and the IC50 (second compound 0.316 µM) was over 10000 nM. The IC50 (second compound 1 µM) was over 10000 nM, the IC50 (second compound 3.16 µM) was over 10000 nM and the IC50 (second compound 10 µM) was over 10000 nM. The viability, T/C [1] was 92.5%, the viability, T/C [2] was 94.8% and the viability, T/C [3] was 115%. The viability, T/C [4] was 102%, the viability, T/C (second compound 0.0316 µM, first compound 3.16 µM) was 92.2% and the viability, T/C (second compound 0.0316 µM, first compound 10 µM) was 95.2%. It also gave a viability, T/C [5] of 112%, a viability, T/C [6] of 105% and a viability, T/C [7] of 81.5%. It also gave a viability, T/C [8] of 102%, a viability, T/C (second compound 0.1 µM, first compound 3.16 µM) of 94.5% and a viability, T/C (second compound 0.1 µM, first compound 10 µM) of 125%. The viability, T/C [9] was 103%, the viability, T/C [10] was 95.3% and the viability, T/C [11] was 89.9%. It also gave a viability, T/C [12] of 87.3%, a viability, T/C (second compound 0.316 µM, first compound 3.16 µM) of 102% and a viability, T/C (second compound 0.316 µM, first compound 10 µM) of 79.9%. It also gave a viability, T/C [13] of 103%, a viability, T/C [14] of 84.5% and a viability, T/C [15] of 94%. It also gave a viability, T/C [16] of 104%, a viability, T/C (second compound 1 µM, first compound 3.16 µM) of 107% and a viability, T/C (second compound 1 µM, first compound 10 µM) of 97.3%. For the same molecule, the viability, T/C [17] was 109%, the viability, T/C [18] was 112% and the viability, T/C [19] was 103%. The viability, T/C [20] was 112%, the viability, T/C (second compound 3.16 µM, first compound 3.16 µM) was 100% and the viability, T/C (second compound 3.16 µM, first compound 10 µM) was 90.1%. The viability, T/C [21] was 126%, the viability, T/C [22] was 116% and the viability, T/C [23] was 123%. For the same molecule, the viability, T/C [24] was 107%, the viability, T/C (second compound 10 µM, first compound 3.16 µM) was 117% and the viability, T/C (second compound 10 µM, first compound 10 µM) was 104%.

Work on `COc1cccc(OCCCN)c1-c1cc(Nc2cnc(C#N)cn2)n[nH]1` + Nc1ccc(C#CCN(C(=O)Cc2ncc(C(F)(F)F)cc2C(F)(F)F)c2ccc(F)cc2)nn1 yielded an IC50 (second compound 0.0316 µM) of 370 nM, an IC50 (second compound 0.1 µM) of 285 nM and an IC50 (second compound 0.316 µM) of 298 nM. It also gave an IC50 (second compound 1 µM) of 577 nM, an IC50 (second compound 3.16 µM) of 242 nM and an IC50 (second compound 10 µM) of 212 nM. It also gave a viability, T/C [25] of 128%, a viability, T/C [26] of 93.5% and a viability, T/C [1] of 85%. For the same molecule, the viability, T/C [2] was 66.8%, the viability, T/C [3] was 55.3% and the viability, T/C [4] was 37%. For the same molecule, the viability, T/C [27] was 89.7%, the viability, T/C [28] was 97.3% and the viability, T/C [5] was 72.9%. The viability, T/C [6] was 62.4%, the viability, T/C [7] was 51.8% and the viability, T/C [8] was 39%. For the same molecule, the viability, T/C [29] was 94.9%, the viability, T/C [30] was 88.3% and the viability, T/C [9] was 73.4%. The viability, T/C [10] was 58.1%, the viability, T/C [11] was 53.2% and the viability, T/C [12] was 38%. The viability, T/C [31] was 110%, the viability, T/C [32] was 90.3% and the viability, T/C [13] was 76.4%. The viability, T/C [14] was 58.4%, the viability, T/C [15] was 53.7% and the viability, T/C [16] was 47.5%. For the same molecule, the viability, T/C [33] was 97.6%, the viability, T/C [34] was 93.5% and the viability, T/C [17] was 81.3%. The viability, T/C [18] was 74.9%, the viability, T/C [19] was 39.7% and the viability, T/C [20] was 35.6%. It also gave a viability, T/C [35] of 103%, a viability, T/C [36] of 96.7% and a viability, T/C [21] of 99.9%. For the same molecule, the viability, T/C [22] was 66.7%, the viability, T/C [23] was 43.3% and the viability, T/C [24] was 36.3%.

With `Cn1ncnc1[C@H]1c2n[nH]c(=O)c3cc(F)cc(c23)N[C@@H]1c1ccc(F)cc1` + Nc1ccc(C#CCN(C(=O)Cc2ncc(C(F)(F)F)cc2C(F)(F)F)c2ccc(F)cc2)nn1 the IC50 (second compound 0.0316 µM) was over 100 nM, the IC50 (second compound 0.1 µM) was over 100 nM and the IC50 (second compound 0.316 µM) was over 100 nM. It also gave an IC50 (second compound 1 µM) of over 100 nM, an IC50 (second compound 3.16 µM) of over 100 nM and an IC50 (second compound 10 µM) of over 100 nM. The viability, T/C (second compound 0.0316 µM, first compound 0.000316 µM) was 98.9%, the viability, T/C (second compound 0.0316 µM, first compound 0.001 µM) was 94.9% and the viability, T/C [25] was 91.9%. It also gave a viability, T/C [26] of 101%, a viability, T/C [1] of 108% and a viability, T/C [2] of 94.3%. The viability, T/C (second compound 0.1 µM, first compound 0.000316 µM) was 105%, the viability, T/C (second compound 0.1 µM, first compound 0.001 µM) was 108% and the viability, T/C [27] was 84.1%. It also gave a viability, T/C [28] of 97.3%, a viability, T/C [5] of 100% and a viability, T/C [6] of 81.9%. The viability, T/C (second compound 0.316 µM, first compound 0.000316 µM) was 99%, the viability, T/C (second compound 0.316 µM, first compound 0.001 µM) was 93.7% and the viability, T/C [29] was 108%. The viability, T/C [30] was 93.8%, the viability, T/C [9] was 97.7% and the viability, T/C [10] was 95.2%. For the same molecule, the viability, T/C (second compound 1 µM, first compound 0.000316 µM) was 102%, the viability, T/C (second compound 1 µM, first compound 0.001 µM) was 96.8% and the viability, T/C [31] was 94.5%. The viability, T/C [32] was 86.9%, the viability, T/C [13] was 103% and the viability, T/C [14] was 104%. The viability, T/C (second compound 3.16 µM, first compound 0.000316 µM) was 105%, the viability, T/C (second compound 3.16 µM, first compound 0.001 µM) was 100% and the viability, T/C [33] was 100%. It also gave a viability, T/C [34] of 110%, a viability, T/C [17] of 113% and a viability, T/C [18] of 93.9%. The viability, T/C (second compound 10 µM, first compound 0.000316 µM) was 122%, the viability, T/C (second compound 10 µM, first compound 0.001 µM) was 119% and the viability, T/C [35] was 121%. It also gave a viability, T/C [36] of 119%, a viability, T/C [21] of 111% and a viability, T/C [22] of 127%.
